Read-outs that look alike come from different tables or passages of the source.
Assays:
Experiment in all cases: Proliferation Assay
Assay type in all cases: cell-based
[1] = test system: 5637 (bladder); conditions: 72 h, read-out: IC50 inhibition of cell growth
Experimental: (§1) For the determination of the inhibitory capacity of compounds of the present invention (in the following: “test compound(s)”) on cell growth, cancer cells were seeded into microtitre plates, treated with different concentrations of test compound or left untreated, and after 72 h the protein content was determined as an equivalent for the cell number.
(§2) Test compounds were dissolved in 100% DMSO and predilutions in cell culture medium were prepared with a final concentration of 0.1% DMSO in medium. The cell culture medium for dilution of the test compounds, consecutive culturing of cell lines and usage during the assay was a cell line specific medium as recommended by the cell line supplier and identical for all three applications mentioned above. After a 24-hour pre-growth period of the seeded cancer cells, the test compound containing media or medium containing 0.1% DMSO as control was added to the cells. The cells were allowed to grow at 37° C. for 72 hours. In addition, all experiments contained a few plates with cells that were processed for measurement immediately after the 24 hours recovery period. These plates contained information about the cell number that existed before treatment, at time zero, and served to calculate the cytotoxicity and/or growth inhibitory effects.
(§3) After treatment, cells were precipitated by addition of 10% TCA (trichloracetic acid). Prior to fixation, the media was aspirated. After an hour of incubation at 4° C. the plates were washed twice with 400 μl of deionized water. Cells were then stained with 100 μl of a 0.08% wt/v SRB (sulforhodamine). The plates were allowed to sit for at least 30 min and washed six times with 1% acetic acid to remove unbound staining agent. The plates were left to dry at room temperature and bound SRB was solubilized with 100 μl of 10 mM Tris base. Measurement of optical density was performed at 560 nm on a Victor 2 plate reader (Perkin Elmer, Germany).
(§4) One common way to express the effect of an anticancer agent is to measure cell viability and survival in the presence of the test agent as % Treated/Control×100. The relationship between the viability and dose is called a dose response curve. Those dose response curves were determined by using algorithms developed by Oncolead GmbH & Co. KG, Munich, Germany, that can be compared to commercial applications, e.g. XLfit™ (ID Business Solutions Ltd., Guildford, UK) algorithm “205”.

[2] = test system: 786O (kidney); conditions: Homo sapiens, 786-0, 72 h, read-out: IC50 inhibition of cell growth
Experimental: as §1, §2, §3, §4

[3] = test system: A431 (skin); conditions: Homo sapiens, A-431, 72 h, read-out: IC50 inhibition of cell growth
Experimental: as §1, §2, §3, §4

[4] = test system: A549 (lung); conditions: Homo sapiens, 72 h, read-out: IC50 inhibition of cell growth
Experimental: as §1, §2, §3, §4

[5] = test system: ASPC1 (pancreas); conditions: Homo sapiens, 72 h, read-out: IC50 inhibition of cell growth
Experimental: as §1, §2, §3, §4

[6] = test system: CASKI (cervix); conditions: Homo sapiens, Ca-Ski, 72 h, read-out: IC50 inhibition of cell growth
Experimental: as §1, §2, §3, §4

[7] = test system: COLO205 (colon); conditions: Homo sapiens, COLO 205, 72 h, read-out: IC50 inhibition of cell growth
Experimental: as §1, §2, §3, §4

[8] = test system: HELA (cervix); conditions: Homo sapiens, 72 h, read-out: IC50 inhibition of cell growth
Experimental: as §1, §2, §3, §4

[9] = test system: HEPG2 (liver); conditions: Homo sapiens, 72 h, read-out: IC50 inhibition of cell growth
Experimental: as §1, §2, §3, §4

[10] = test system: HT29 (colon); conditions: Homo sapiens, HT-29, 72 h, read-out: IC50 inhibition of cell growth
Experimental: as §1, §2, §3, §4

[11] = test system: J82 (bladder); conditions: 72 h, read-out: IC50 inhibition of cell growth
Experimental: as §1, §2, §3, §4

[12] = test system: JIMT1 (breast); conditions: Homo sapiens, JIMT-1, 72 h, read-out: IC50 inhibition of cell growth
Experimental: as §1, §2, §3, §4

[13] = test system: MT3 (breast); conditions: 72 h, read-out: IC50 inhibition of cell growth
Experimental: as §1, §2, §3, §4

[14] = test system: NCIH292 (lung); conditions: Homo sapiens, NCI-H292, 72 h, read-out: IC50 inhibition of cell growth
Experimental: as §1, §2, §3, §4

[15] = test system: NCIH460 (lung); conditions: Homo sapiens, NCI-H460, 72 h, read-out: IC50 inhibition of cell growth
Experimental: as §1, §2, §3, §4

[16] = test system: NCIH82 (lung); conditions: Homo sapiens, NCI-H82, 72 h, read-out: IC50 inhibition of cell growth
Experimental: as §1, §2, §3, §4

[17] = test system: OVCAR3 (ovary); conditions: Homo sapiens, OVCAR-3, 72 h, read-out: IC50 inhibition of cell growth
Experimental: as §1, §2, §3, §4

[18] = test system: OVCAR4 (ovary); conditions: Homo sapiens, OVCAR-4, 72 h, read-out: IC50 inhibition of cell growth
Experimental: as §1, §2, §3, §4

[19] = test system: PANC1 (pancreas); conditions: Homo sapiens, PANC-1, 72 h, read-out: IC50 inhibition of cell growth
Experimental: as §1, §2, §3, §4

[20] = test system: PANC1005 (pancreas); conditions: Homo sapiens, 72 h, read-out: IC50 inhibition of cell growth
Experimental: as §1, §2, §3, §4

[21] = test system: RD (muscle); conditions: 72 h, read-out: IC50 inhibition of cell growth
Experimental: as §1, §2, §3, §4

[22] = test system: SF268 (brain); conditions: Homo sapiens, SF-268, 72 h, read-out: IC50 inhibition of cell growth
Experimental: as §1, §2, §3, §4

[23] = test system: SKBR3 (breast); conditions: Homo sapiens, SK-BR-3, 72 h, read-out: IC50 inhibition of cell growth
Experimental: as §1, §2, §3, §4

[24] = test system: SKHEP1 (liver); conditions: Homo sapiens, SK-HEP1, 72 h, read-out: IC50 inhibition of cell growth
Experimental: as §1, §2, §3, §4

[25] = test system: SKMEL5 (skin); conditions: Homo sapiens, SK-MEL-5, 72 h, read-out: IC50 inhibition of cell growth
Experimental: as §1, §2, §3, §4

[26] = test system: U2OS (bone); conditions: Homo sapiens, 72 h, read-out: IC50 inhibition of cell growth
Experimental: as §1, §2, §3, §4

- IC50 [3]: ≤ 1000 nM
- IC50 [4]: ≤ 1000 nM
- IC50 [5]: ≤ 1000 nM
- IC50 [7]: ≤ 1000 nM
- IC50 [8]: ≤ 1000 nM
- IC50 [9]: ≤ 1000 nM
- IC50 [10]: ≤ 1000 nM
- IC50 [17]: ≤ 1000 nM
- IC50 [18]: ≤ 1000 nM
- IC50 [19]: ≤ 1000 nM
- IC50 [20]: ≤ 1000 nM
- IC50 [23]: ≤ 1000 nM
- IC50 [24]: ≤ 1000 nM
- IC50 ([25]; SKMEL5 (skin)): ≤ 1000 nM
- IC50 ([25]; SKMELS (skin)): ≤ 100 nM
- IC50 [26]: ≤ 1000 nM
Structure (SMILES): COc1cccc(C(=O)Nc2nc3cc4c(cc3[nH]2)OC(F)(F)O4)c1 [Compound 56, N-(2,2-difluoro-5H-[1,3]dioxolo[4′,5′:4,5]benzo[1,2-d]imidazol-6-yl)-3-methoxybenzamide]
- IC50 [1]: ≤ 1000 nM
- IC50 [2]: ≤ 1000 nM
- IC50 [6]: ≤ 1000 nM
- IC50 [11]: ≤ 1000 nM
- IC50 [12]: ≤ 1000 nM
- IC50 [13]: ≤ 1000 nM
- IC50 [14]: ≤ 1000 nM
- IC50 [15]: ≤ 1000 nM
- IC50 [16]: ≤ 1000 nM
- IC50 [21]: ≤ 1000 nM
- IC50 [22]: ≤ 1000 nM

Source: patent publication US20170240556A1, “BIFLUORODIOXALANE-AMINO-BENZIMIDAZOLE KINASE INHIBITORS FOR THE TREATMENT OF CANCER, AUTOIMMUNEINFLAMMATION AND CNS DISORDERS” (4SC DISCOVERY GMBH, priority 2012, published 2017)
